Reference: patent US6979664B1, “Composition for accelerating seed germination and plant growth” (Bios Agriculture Inc., priority 1998, dated 2005)

Legend:
Assay type in all cases: in vivo
Zea mays = experiment: early growth (after seedling emergence) of Zea mays; settings: for Leaf area / No. of roots / Root dry wt./plant / Root length / Shoot dry wt./plant / Spent seed dry wt.: 15 DAS
Description: Plastic pots (7.5 cm dia) were filled with 15 g of autoclaved vermiculite. Seeds of corn (Zea mays—Poaceae), bean (Phaseolus vulgaris—Fabaceae), canola (Brassica napus—Brassicaceae), cucumber (Cucumis sativus—Cucurbitaceae), cantaloupe (Cucumis melo—Cucurbitaceae), cotton (Gossypium sp.—Malvaceae), lettuce (Lactuca sativa—Asteraceae), beet (Beta vulgaris—Chenopodiaceae), and soybean (Glycine max—Fabaceae), were placed at 2.5 cm deep at the rate of 5 or 10 seeds per pot. […] Acetonitrile was included as one of the controls since LCO was purified in this solvent (see Example 3), after 4 days the pots were irrigated with 10 mL of water once every two days. Each treatment had 4 replications in a randomized block design. Pots were placed on a green house bench maintained at 25±2° C. with a day/night cycle 16/8 h and relative humidity of 70%, or in a growth chamber set at 15° C. with a 16:8 day/night cycle. The percent seedling emergence was recorded at 4 days after sowing (DAS). Plant height was recorded from 4 DAS to 15 DAS. Plants were harvested at 15 DAS and leaf area, root length and the number of roots per plant were recorded. The plants were then dissected and placed in paper covers and dried at 90° C. for 24 h and the dry weights of roots, shoots and the spent seeds recorded. The data were analyzed with the Statistical Analysis System version 6.12 (SAS institute Inc. Cary, N.C., USA).

Brassica napus = experiment: seedling emergence at 15° C.
Description: (§1) Plastic pots (7.5 cm dia) were filled with 15 g of autoclaved vermiculite. Seeds of corn (Zea mays—Poaceae), bean (Phaseolus vulgaris—Fabaceae), canola (Brassica napus—Brassicaceae), cucumber (Cucumis sativus—Cucurbitaceae), cantaloupe (Cucumis melo—Cucurbitaceae), cotton (Gossypium sp.—Malvaceae), lettuce (Lactuca sativa—Asteraceae), beet (Beta vulgaris—Chenopodiaceae), and soybean (Glycine max—Fabaceae), were placed at 2.5 cm deep at the rate of 5 or 10 seeds per pot. Pots were irrigated with either 25 mL of LCO solution at different concentrations (10^−6–10^−14M) or aqueous acetonitrile or water, as controls. Acetonitrile was included as one of the controls since LCO was purified in this solvent (see Example 3), after 4 days the pots were irrigated with 10 mL of water once every two days. Each treatment had 4 replications in a randomized block design. Pots were placed on a green house bench maintained at 25±2° C. with a day/night cycle 16/8 h and relative humidity of 70%, or in a growth chamber set at 15° C. with a 16:8 day/night cycle. […] As defined above, seedling emergence has occurred when growth of the plant can be observed above the rooting medium surface. The percent emergence was calculated. The data were analyzed with Statistical Analysis System, version 6.12 (SAS institute Inc. Cary, N.C., USA).

Cucumis sativus = experiment: seedling emergence at 15° C.
Description: as §1

Corn = experiment: seedling emergence under field condition; settings: six days after planting
Experimental: (§2) Seeds were surface sterilized with 2% sodium hypochlorite and soaked in different concentrations (10^−5, 10^−7, 10^−9M) of LCO solution for 12 h. Water served as the control. The study was conducted at the experimental field of the Macdonald campus of McGill University, Ste-Anne-de-Belleveue. Quebec, Canada. The field was ploughed to a fine tilth, seeds were hand planted in 1 m rows at 2.5 to 3 cm deep with three replications per treatment. […] The data was analyzed for significance by an ANOVA protected LSD test using SAS system Version 6.1 (SAS Inc., Cary, N.C., USA).

Soybean = experiment: seedling emergence under field condition; settings: six days after planting
Experimental: as §2

CCCCCCC=CCCCCCCCCCC(=O)NC1C(OC2C(CO)OC(OC3C(CO)OC(OC4C(CO)OC(OC5C(COC6OC(C)C(O)C(O)C6OC)OC(O)C(NC(C)=O)C5O)C(NC(C)=O)C4O)C(NC(C)=O)C3O)C(NC(C)=O)C2O)OC(CO)C(O)C1O (stereo not shown) [LCO, NodBj-V(C18:1Δ11)]
Plant height at 15 DAS (Zea mays; LCO 10−^5): 102.9 c mm | Leaf area (Zea mays; LCO 10−^5): 11.7 cd cm^2 | No. of roots (Zea mays; LCO 10−^5): 6.8 cd | Root dry wt./plant (Zea mays; LCO 10−^5): 75.7 cd mg | Root length (Zea mays; LCO 10−^5): 137.0 cd mm | Shoot dry wt./plant (Zea mays; LCO 10−^5): 41.6 bcd mg | Spent seed dry wt. (Zea mays; LCO 10−^5): 123.5 bc mg | Plant height at 15 DAS (Zea mays; LCO 10−^6): 130.4 ab mm | Leaf area (Zea mays; LCO 10−^6): 18.2 a cm^2 | No. of roots (Zea mays; LCO 10−^6): 7.66 abc | Root dry wt./plant (Zea mays; LCO 10−^6): 85.1 bc mg | Root length (Zea mays; LCO 10−^6): 150.8 bc mm | Shoot dry wt./plant (Zea mays; LCO 10−^6): 51.4 b mg | Spent seed dry wt. (Zea mays; LCO 10−^6): 90.7 cd mg | Plant height at 15 DAS (Zea mays; LCO 10−^7): 130.1 ab mm | Leaf area (Zea mays; LCO 10−^7): 15.7 ab cm^2 | No. of roots (Zea mays; LCO 10−^7): 8.0 ab | Root dry wt./plant (Zea mays; LCO 10−^7): 96.5 ab mg | Root length (Zea mays; LCO 10−^7): 153.9 b mm | Shoot dry wt./plant (Zea mays; LCO 10−^7): 51.6 b mg | Spent seed dry wt. (Zea mays; LCO 10−^7): 99.5 cd mg | Plant height at 15 DAS (Zea mays; LCO 10−^8): 142.6 a mm | Leaf area (Zea mays; LCO 10−^8): 19.3 a cm^2 | No. of roots (Zea mays; LCO 10−^8): 8.4 a | Root dry wt./plant (Zea mays; LCO 10−^8): 103.4 a mg | Root length (Zea mays; LCO 10−^8): 187.0 a mm | Shoot dry wt./plant (Zea mays; LCO 10−^8): 66.2 a mg | Spent seed dry wt. (Zea mays; LCO 10−^8): 76.3 mg·days | Plant height at 15 DAS (Zea mays; LCO 10−^9): 134.7 ab mm | Leaf area (Zea mays; LCO 10−^9): 17.0 ab cm^2 | No. of roots (Zea mays; LCO 10−^9): 7.75 abc | Root dry wt./plant (Zea mays; LCO 10−^9): 83.3 bc mg | Root length (Zea mays; LCO 10−^9): 144.4 cbd mm | Shoot dry wt./plant (Zea mays; LCO 10−^9): 46.8 bc mg | Spent seed dry wt. (Zea mays; LCO 10−^9): 93.7 cd mg | Plant height at 15 DAS (Zea mays; LCO 10−^10): 127.1 b mm | Leaf area (Zea mays; LCO 10−^10): 13.9 bc cm^2 | No. of roots (Zea mays; LCO 10−^10): 7.95 ab | Root dry wt./plant (Zea mays; LCO 10−^10): 89.5 abc mg | Root length (Zea mays; LCO 10−^10): 149.1 bc mm | Shoot dry wt./plant (Zea mays; LCO 10−^10): 51.4 b mg | Spent seed dry wt. (Zea mays; LCO 10−^10): 89.8 cd mg | Plant height at 15 DAS (Zea mays; LCO 10−^11): 103.3 mm | Leaf area (Zea mays; LCO 10−^11): 8.51 def cm^2 | No. of roots (Zea mays; LCO 10−^11): 6.69 cd | Root dry wt./plant (Zea mays; LCO 10−^11): 74.6 cd mg | Root length (Zea mays; LCO 10−^11): 132.1 d mm | Shoot dry wt./plant (Zea mays; LCO 10−^11): 38.0 cde mg | Spent seed dry wt. (Zea mays; LCO 10−^11): 115.9 bc mg | Plant height at 15 DAS (Zea mays; LCO 10−^12): 98.3 c mm | Leaf area (Zea mays; LCO 10−^12): 8.0 def cm^2 | No. of roots (Zea mays; LCO 10−^12): 7.25 | Root dry wt./plant (Zea mays; LCO 10−^12): 84.6 bc mg | Root length (Zea mays; LCO 10−^12): 137.9 cd mm | Shoot dry wt./plant (Zea mays; LCO 10−^12): 40.6 bcde mg | Spent seed dry wt. (Zea mays; LCO 10−^12): 105.4 od mg | Plant height at 15 DAS (Zea mays; LCO 10−^13): 91.8 cd mm | Leaf area (Zea mays; LCO 10−^13): 10.4 cde cm^2 | No. of roots (Zea mays; LCO 10−^13): 6.7 cd | Root dry wt./plant (Zea mays; LCO 10−^13): 85.4 bc mg | Root length (Zea mays; LCO 10−^13): 130.9 d mm | Shoot dry wt./plant (Zea mays; LCO 10−^13): 43.6 bc mg | Spent seed dry wt. (Zea mays; LCO 10−^13): 109.6 cd mg | Plant height at 15 DAS (Zea mays; LCO 10−^14): 99.9 c mm | Leaf area (Zea mays; LCO 10−^14): 11.2 cde cm^2 | No. of roots (Zea mays; LCO 10−^14): 7.36 abc | Root dry wt./plant (Zea mays; LCO 10−^14): 90.2 abc mg | Root length (Zea mays; LCO 10−^14): 136.8 cd mm | Shoot dry wt./plant (Zea mays; LCO 10−^14): 46.6 bc mg | Spent seed dry wt. (Zea mays; LCO 10−^14): 102.9 cd mg | α-amylase activity in the treated seeds (Zea mays; corn seeds): dramatic increase | start of seedling emergence after seeding (Zea mays; corn, control 3–4 days): 2 to 3 days | LCO concentration of optimum effect (Zea mays; early growth of corn (Table 3)): 10^−8 M | seedling emergence (Brassica napus; 10^−6M): 35 bc | seedling emergence (Brassica napus; 10^−7M): 32 c | seedling emergence (Brassica napus; 10^−8M): 35 bc | seedling emergence (Brassica napus; 10^−9M): 52 ab | seedling emergence (Brassica napus; 10^−10M): 62 a | seedling emergence (Brassica napus; 10^−11M): 47 bc | seedling emergence (Brassica napus; 10^−12M): 45 bc | seedling emergence (Brassica napus; 10^−13M): 37 bc | seedling emergence (Brassica napus; 10^−14M): 30 c | seedling emergence (Cucumis sativus; 10^−6M): 65 abc | seedling emergence (Cucumis sativus; 10^−7M): 85 ab | seedling emergence (Cucumis sativus; 10^−8M): 80 ab | seedling emergence (Cucumis sativus; 10^−9M): 70 abc | seedling emergence (Cucumis sativus; 10^−10M): 50 c | seedling emergence (Cucumis sativus; 10^−11M): 80 ab | seedling emergence (Cucumis sativus; 10^−12M): 80 ab | seedling emergence (Cucumis sativus; 10^−13M): 70 abc | seedling emergence (Cucumis sativus; 10^−14M): 70 abc | seedling emergence under field condition (Corn; 10^−7 M seed soak 12 h): 60.0 b | seedling emergence under field condition (Corn; LCO 10^−5 M seed soak 12 h): 80.0 b | seedling emergence under field condition (Corn; LCO 10^−9 M seed soak 12 h): 53.3 b | seedling emergence under field condition (Soybean; 10^−7 M seed soak 12 h): 33.3 b | seedling emergence under field condition (Soybean; LCO 10^−5 M seed soak 12 h): 26.6 ab | seedling emergence under field condition (Soybean; LCO 10^−9 M seed soak 12 h): 63.3 c
